≈ marks a conversion by molar mass, not a printed value.
Experiments:
6C3HED lymphosarcoma = assay: in vivo activity against 6C3HED lymphosarcoma (Gardner lymphosarcoma, GLS) transplanted in C3H mice, oral; settings: for Toxic/Total (number of mice which died during test period/total number of mice in test group): 6C3HED tumor-bearing C3H mice; for inhibition in vivo at 150 mg/kg / inhibition in vivo at 300 mg/kg: Mus musculus, 6C3HED, po, 192 h, read-out: % Tumor Inhibition; for % Tumor Inhibition: 6C3HED tumor, C3H mice
Procedure: The compounds were tested in C3H mice bearing a 6C3HED lymphosarcoma, also known as the Gardner lymphosarcoma (GLS). The 6C3HED lymphosarcoma was obtained from the Division of Cancer Treatment, National Cancer Institute, Tumor Bank, maintained at E. G. and G. Mason Research (Worcester, Mass.). First passage tumor was stored in liquid nitrogen using standard techniques. The transplanted tumor was reestablished from the Tumor Bank every six months or as needed. The tumor was maintained by serial passage twice weekly in C3H mice.
In the procedure the tumor was removed from passage animals and minced into 1- to 3-mm square fragments using sterile techniques. Tumor pieces were checked for sterility using both Antibiotic Medium 1 and Brain Heart Infusion (Difco, Detroit, Mich.). Recipient mice were shaved and tumor pieces were implanted subcutaneously in the auxiliary region by trocar. Drug therapy on the appropriate schedule was initiated on the day after tumor implant. The compound being tested was mixed with 2.5 weight % of a polyoxyethylated oil known as "Emulphor EL-620" surfactant from GAF Chemicals Corporation (1:40 dilution of Empulphor in saline). All animals were weighed at the beginning and end of administration of the subject compounds. Food and water were provided ad libitum. The drug was administered orally in 0.5 ml of 2.5% Emulphor. Unless otherwise indicated, the compound was administered once per day for eight days. The tumor was measured the day after treatment ended with two dimensional measurements (width and length) of the tumor taken using Vernier calipers. Tumor weights were calculated from these measurements using the following formula:
(tumor weight in mg)=(width in mm)^2 ×(length in mm)/2
At least one control group of an equal number of mice was treated with the same volume of 2.5% Emulphor only. The percent inhibition was calculated by subtracting the ratio of the mean tumor size of the test group relative to the control group from 1 and multiplying the result by 100.
The results of administering some of the present compounds orally (unless otherwise indicated) to mice bearing a 6C3HED tumor are provided in the Table. In the Table, column 1 gives the example number corresponding to the preparation of the particular compound, column 2 provides the dose level, column 3 lists the percent inhibition of tumor growth, and column 4 gives the number of mice which died relative to the total number of animals in the group.

CCRF-CEM cells = assay: in vitro cytotoxicity against CCRF-CEM cells (50% inhibition of growth); type: cell-based, human; settings: 72 h incubation; for IC50: Homo sapiens, CCRF-CEM
Procedure: The in vitro CCRF-CEM data reported in column 5 of the Table was obtained using CCRF-CEM cells, a human leukemia cell line, (Foley et al., Cancer, 1965, 18, 522) were grown as previously described (Grindey, et al., J. Mol. Pharmacol., 1979, 16, 601) both references incorporated herein by reference. Dose-response curves were generated for various compounds to determine the concentration required for 50% inhibition of growth (IC50). Cluster plates were prepared in duplicate with the compound at various concentrations. Test compounds were dissolved initially in DMSO at a concentration of 4 mg/mL and further diluted with solvent to the desired concentration. Cells in Roswell Park Memorial Institute 1640 media supplemented with 10% dialyzed fetal bovine serum, and 25 mM HEPES buffer were added to the well an a final concentration of 4.8×10^4 cells/well in a total volume of 2.0 mL. After 72 h of incubation (95% air, 5% CO2), cell numbers were determined on a ZBI Coulter counter. Cell number for indicated controls at the end of incubation was usually (4-6)×10^5 cells/well.

[1] = 150 mg/kg orally daily for eight days
[2] = 300 mg/kg orally daily for eight days

Row | Structure (SMILES) | Toxic/Total (number of mice which died during test period/total number of mice in test group) (6C3HED lymphosarcoma; [1]) | Toxic/Total (number of mice which died during test period/total number of mice in test group) (6C3HED lymphosarcoma; [2]) | inhibition in vivo at 150 mg/kg (6C3HED lymphosarcoma) | inhibition in vivo at 300 mg/kg (6C3HED lymphosarcoma) | IC50 (CCRF-CEM cells) | % Tumor Inhibition (6C3HED lymphosarcoma; [1]) | % Tumor Inhibition (6C3HED lymphosarcoma; [2]) | in vitro (CCRF-CEM) IC50 (CCRF-CEM cells)
1 | COc1cc(S(=O)(=O)NC(=O)Nc2ccc(Cl)cc2)cc(OC)c1OC [Example 16, N-[[(4-Chlorophenyl)amino]carbonyl]-3,4,5-trimethoxylbenzenesulfonamide] | 0/10 | 0/10 | 6% | 35% | > 20 µg/mL |  |  | 
2 | CNc1c(Br)cc(S(=O)(=O)NC(=O)Nc2ccc(Cl)cc2)cc1Br [Example 18, N-[[(4-Chlorophenyl)amino]carbonyl]-3,5-dibromo-4-(N-methylamino)benzenesulfonamide] | 1/10 | 0/10 | 26% | 47% | 19.3 µg/mL (≈ 38.8 µM) |  |  | 
3 | COc1c(C)cc(S(=O)(=O)NC(=O)Nc2ccc(Cl)cc2)cc1C [Example 15, N-[[(4-Chlorophenyl)amino]carbonyl]-3,5-dimethyl-4-methoxybenzesulfonamide] | 1/10 | 0/10 | 55% | 87% | 16.5 µg/mL (≈ 44.7 µM) |  |  | 
4 | Cc1cc(S(=O)(=O)NC(=O)Nc2ccc(Cl)c(Cl)c2)cc(C)c1C [Example 4, N-[[(3,4-Dichlorophenyl)amino]carbonyl]-3,4,5-trimethylbenzenesulfonamide] | 0/10 | 1/10 | 38% | 74% | 13.5 µg/mL (≈ 34.9 µM) |  |  | 
5 | Nc1c(Cl)cc(S(=O)(=O)NC(=O)Nc2ccc(Cl)cc2)cc1Cl [Example 7, N,[[(4-Chlorophenyl)amino]carbonyl]-4-amino-3,5-dichlorobenzenesulfonamide] | 0/10 | 10/10 |  |  |  | 95% | Toxic | > 20 µg/mL
6 | Cc1cc(S(=O)(=O)NC(=O)Nc2ccc(C(F)(F)F)cc2)cc(C)c1C [Example 3, N-[[(4 -Trifluoromethylphenyl)amino]carbonyl]-3,4,5-trimethylbenzenesulfonamide] | 0/10 | 4/10 | 100% | 100% | > 20 µg/mL |  |  | 
7 | Cc1cc(S(=O)(=O)NC(=O)Nc2ccc(Cl)cc2)cc(C)c1Cl [Example 12, N-[[(4-Chlorophenyl)amino]carbonyl]-4-chloro-3,5-dimethylbenzenesulfonamide] | 0/10 | 1/10 | 44% | 84% | 15 µg/mL (≈ 40.2 µM) |  |  | 
8 | CN(C)c1c(Cl)cc(S(=O)(=O)NC(=O)Nc2ccc(Cl)cc2)cc1Cl [Example 14, N-[[(4-Chlorophenyl)amino]carbonyl]-4-(N,N,dimethylamino)-3,5-dichlorobenzene-sulfonamide] | 1/10 | 0/10 | 50% | 93% | 17 µg/mL (≈ 40.2 µM) |  |  | 
9 | Cc1cc(S(=O)(=O)NC(=O)Nc2ccc(Cl)cc2)cc(C)c1C [Example 1, N-[[(4-Chlorophenyl)amino]carbonyl]-3,4,5-trimethylbenzene sulfonamide] | 0/10 | 0/10 | 99% | 100% | 14.8 µg/mL (≈ 41.9 µM) |  |  | 
10 | Cc1cc(S(=O)(=O)NC(=O)Nc2ccc(Br)cc2)cc(C)c1C [Example 2, N-[[(4-Bromomhenyl)amino]carbonyl]-3,4,5-trimethylbenzenesulfonamide] | 1/10 | 8/10 | 99% | 99% | > 20 µg/mL |  |  | 
11 | O=C(Nc1ccc(Cl)cc1)NS(=O)(=O)c1cc(Cl)c(Cl)c(Cl)c1 [Example 6, N-[[(4-Chlorophenyl)amino]carbonyl]-3,4,5-trichlorobenzene sulfonamide] | 0/10 | 3/10 | 99% | 99% | > 20 µg/mL |  |  | 
